Data published in patent publication US7935670B2, “Hepatitis C virus inhibitors” (Bristol-Myers Squibb Company, priority 2006, dated 2011).

Legend:
[1] = system: HCV replicon in HUH-7 cells; experiment: HCV replicon FRET assay; assay type: cell-based, HCV strain 1b; details: Hepatitis C virus, Huh-7, read-out: Activity Range (EC50)
Description: An HCV replicon whole cell system was established as described by Lohmann V, Korner F, Koch J, Herian U, Theilmann L, Bartenschlager R., Science 285(5424): 110-3 (1999). This system enabled us to evaluate the effects of our HCV Protease compounds on HCV RNA replication. Briefly, using the HCV strain 1b sequence described in the Lohmann paper (Assession number: AJ238799), an HCV cDNA was synthesized by Operon Technologies, Inc. (Alameda, Calif.), and the full-length replicon was then assembled in plasmid pGem9zf(+) (Promega, Madison, Wis.) using standard molecular biology techniques. The replicon consists of (i) the HCV 5′ UTR fused to the first 12 amino acids of the capsid protein, (ii) the neomycin phosphotransferase gene (neo), (iii) the IRES from encephalomyocarditis virus (EMCV), and (iv) HCV NS3 to NS5B genes and the HCV 3′ UTR. Plasmid DNAs were linearized with ScaI and RNA transcripts were synthesized in vitro using the T7 MegaScript transcription kit (Ambion, Austin, Tex.) according to manufacturer's directions. In vitro transcripts of the cDNA were transfected into the human hepatoma cell line, HUH-7. […] Resulting cell lines were characterized for positive and negative strand RNA production and protein production over time.
The HCV replicon FRET assay was developed to monitor the inhibitory effects of compounds described in the disclosure on HCV viral replication. HUH-7 cells, constitutively expressing the HCV replicon, were grown in Dulbecco's Modified Eagle Media (DMEM) (Gibco-BRL) containing 10% Fetal calf serum (FCS) (Sigma) and 1 mg/ml G418 (Gibco-BRL). Cells were seeded the night before (1.5×10^4 cells/well) in 96-well tissue-culture sterile plates. Compound and no compound controls were prepared in DMEM containing 4% FCS, 1:100 Penicillin/Streptomysin (Gibco-BRL), 1:100 L-glutamine and 5% DMSO in the dilution plate (0.5% DMSO final concentration in the assay). Compound/DMSO mixes were added to the cells and incubated for 4 days at 37° C. After 4 days, cells were first assessed for cytotoxicity using alamar Blue (Trek Diagnotstic Systems) for a CC50 reading. The toxicity of compound (CC50) was determined by adding 1/10th volume of alamar Blue to the media incubating the cells. After 4 h, the fluorescence signal from each well was read, with an excitation wavelength at 530 nm and an emission wavelength of 580 nm, using the Cytofluor Series 4000 (Perspective Biosystems). Plates were then rinsed thoroughly with Phosphate-Buffered Saline (PBS) (3 times 150 μl). The cells were lysed with 25 μl of a lysis assay reagent containing an HCV protease substrate (5× cell Luciferase cell culture lysis reagent (Promega #E153A) diluted to 1× with distilled water, NaCl added to 150 mM final, the FRET peptide substrate (as described for the enzyme assay above) diluted to 10 μM final from a 2 mM stock in 100% DMSO. The plate was then placed into the Cytofluor 4000 instrument which had been set to 340 nm excitation/490 nm emission, automatic mode for 21 cycles and the plate read in a kinetic mode. EC50 determinations were carried out as described for the IC50 determinations.

[2] = biological target: T1, HCV NS3/4A protease complex, BMS strain (UniProt P27958, species not given/STRAIN_BMS); experiment: FRET peptide assay to monitor HCV NS3/4A proteolytic activity (BMS strain); assay type: biochemical, HCV genotype 1a; details: NS3/4A BMS strain; read-out: Activity Range (IC50)
T1 construct: given for H77 and J4L6S, not expressly for BMS; fused on or other part: three-lysine solubilising tail at the end of NS4A (given for the H77 and J4L6S constructs)
Description: HCV NS3 protease complexes, derived from the BMS strain, H77 strain or J4L6S strain, were generated, as described below. These purified recombinant proteins were generated for use in a homogeneous assay (see below) to provide an indication of how effective compounds of the present disclosure would be in inhibiting HCV NS3 proteolytic activity.
Serum from an HCV-infected patient was obtained from Dr. T. Wright, San Francisco Hospital. An engineered full-length cDNA (compliment deoxyribonucleic acid) template of the HCV genome (BMS strain) was constructed from DNA fragments obtained by reverse transcription-PCR(RT-PCR) of serum RNA (ribonucleic acid) and using primers selected on the basis of homology between other genotype 1a strains. From the determination of the entire genome sequence, a genotype 1a was assigned to the HCV isolate according to the classification of Simmonds et al. (See P Simmonds, K A Rose, S Graham, S W Chan, F McOmish, B C Dow, E A Follett, P L Yap and H Marsden, J. Clin. Microbiol., 31(6), 1493-1503 (1993)). […] The infectious clones, H77 (1a genotype) and J4L6S (1b genotype) were obtained from R. Purcell (NIH) and the sequences are published in Genbank (AAB67036, see Yanagi, M., Purcell, R. H., Emerson, S. U. and Bukh, J. Proc. Natl. Acad. Sci. U.S.A. 94(16), 8738-8743 (1997); AF054247, see Yanagi, M., St Claire, M., Shapiro, M., Emerson, S. U., Purcell, R. H. and Bukh, J, Virology 244 (1), 161-172. (1998)).
NS3/4A protease complex-containing fractions were pooled and loaded on a desalting column Superdex-S200 pre-equilibrated with buffer D (25 mM HEPES, pH 7.5, 20% glycerol, 300 mM NaCl, 0.2% Triton X-100, 10 mM βME). Sample was loaded at a flow rate of 1 mL/min. NS3/4A protease complex-containing fractions were pooled and concentrated to approximately 0.5 mg/ml. The purity of the NS3/4A protease complexes, derived from the BMS, H77 and J4L6S strains, were judged to be greater than 90% by SDS-PAGE and mass spectrometry analyses. The enzyme was stored at −80° C., thawed on ice and diluted prior to use in assay buffer.
The purpose of this in vitro assay was to measure the inhibition of HCV NS3 protease complexes, derived from the BMS strain, H77 strain or J4L6S strain, as described above, by compounds of the present disclosure. This assay provides an indication of how effective compounds of the present disclosure would be in inhibiting HCV NS3 proteolytic activity.
In order to monitor HCV NS3/4A protease activity, an NS3/4A peptide substrate was used. The substrate was RET S1 (Resonance Energy Transfer Depsipeptide Substrate; AnaSpec, Inc. cat #22991)(FRET peptide), described by Taliani et al. in Anal. Biochem. 240(2):60-67 (1996). The sequence of this peptide is loosely based on the NS4A/NS4B natural cleavage site for the HCV NS3 protease except there is an ester linkage rather than an amide bond at the cleavage site. The peptide also contains a fluorescence donor, EDANS, near one end of the peptide and an acceptor, DABCYL, near the other end. The fluorescence of the peptide is quenched by […] resonance energy transfer (RET) between the donor and the acceptor, but as the NS3 protease cleaves the peptide the products are released from RET quenching and the fluorescence of the donor becomes apparent.
The peptide substrate was incubated with one of the three recombinant NS3/4A protease complexes, in the absence or presence of a compound of the present disclosure. The inhibitory effects of a compound were determined by monitoring the formation of fluorescent reaction product in real time using a Cytofluor Series 4000.
Assay buffer: 50 mM HEPES, pH 7.5; 0.15 M NaCl; 0.1% Triton; 15% Glycerol; 10 mM βME. Substrate: 2 μM final concentration (from a 2 mM stock solution in DMSO stored at −20° C.). HCV NS3/4A protease type 1a (1b), 2-3 nM final concentration (from a 5 μM stock solution in 25 mM HEPES, pH 7.5, 20% glycerol, 300 mM NaCl, 0.2% Triton-X100, 10 mM βME). […]

T1 sequence (P27958 1027-1657, change not shown, one chain of several): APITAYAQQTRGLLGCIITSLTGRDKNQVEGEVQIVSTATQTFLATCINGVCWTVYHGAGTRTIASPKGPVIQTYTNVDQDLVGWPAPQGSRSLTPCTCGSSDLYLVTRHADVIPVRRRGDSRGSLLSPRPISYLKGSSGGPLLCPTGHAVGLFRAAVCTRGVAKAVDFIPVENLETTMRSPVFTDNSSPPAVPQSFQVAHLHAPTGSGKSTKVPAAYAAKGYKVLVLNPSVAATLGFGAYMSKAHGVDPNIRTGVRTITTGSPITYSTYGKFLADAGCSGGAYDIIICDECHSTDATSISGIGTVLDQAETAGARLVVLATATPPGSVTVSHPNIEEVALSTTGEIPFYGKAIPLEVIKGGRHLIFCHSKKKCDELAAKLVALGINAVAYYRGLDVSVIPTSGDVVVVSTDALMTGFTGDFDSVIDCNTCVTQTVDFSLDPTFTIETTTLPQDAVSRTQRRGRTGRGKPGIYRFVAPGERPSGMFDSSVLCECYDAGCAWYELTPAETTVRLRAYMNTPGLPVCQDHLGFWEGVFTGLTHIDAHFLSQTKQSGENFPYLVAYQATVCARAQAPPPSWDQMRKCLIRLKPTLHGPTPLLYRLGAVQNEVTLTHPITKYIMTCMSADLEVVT

Structure (SMILES) | EC50 [1] [nM] | IC50 [2] [nM]
C=C[C@@H]1C[C@]1(NC(=O)[C@@H]1C[C@@H](OC(=O)c2ccc(-c3ccccc3)cc2)CN1C(=O)[C@@H](NC(=O)OC(C)(C)C)C(C)(C)C)C(=O)NS(=O)(=O)C1CC1 [Compound 4] | 200 to 1000 | 1 to 50
C=C[C@@H]1C[C@]1(NC(=O)[C@@H]1C[C@@H](OC(=O)c2ccc(F)cc2)CN1C(=O)[C@@H](NC(=O)OC(C)(C)C)C(C)(C)C)C(=O)NS(=O)(=O)C1CC1 [Compound 2] | 200 to 1000 | 1 to 50
C=C[C@@H]1C[C@]1(NC(=O)[C@@H]1C[C@@H](OC(=O)c2ccc(OC)cc2)CN1C(=O)[C@@H](NC(=O)OC(C)(C)C)C(C)(C)C)C(=O)NS(=O)(=O)C1CC1 [Compound 3] | 25 to 200 | 1 to 50
C=C[C@@H]1C[C@]1(NC(=O)[C@@H]1C[C@@H](OC(=O)c2ccc3sccc3c2)CN1C(=O)[C@@H](NC(=O)OC(C)(C)C)C(C)(C)C)C(=O)NS(=O)(=O)C1CC1 [Compound 6] | 25 to 200 | 1 to 50
C=C[C@@H]1C[C@]1(NC(=O)[C@@H]1C[C@@H](OC(=O)c2ccc3c(c2)CCO3)CN1C(=O)[C@@H](NC(=O)OC(C)(C)C)C(C)(C)C)C(=O)NS(=O)(=O)C1CC1 [Compound 7] | 25 to 200 | 1 to 50
C=C[C@@H]1C[C@]1(NC(=O)[C@@H]1C[C@@H](OC(=O)c2ccc3ncccc3c2)CN1C(=O)[C@@H](NC(=O)OC(C)(C)C)C(C)(C)C)C(=O)NS(=O)(=O)C1CC1 [Compound 5] | 25 to 200 | 1 to 50
